{"source": "paper PMC7123434", "about": "“Development of High-Throughput Fluorescent-Based Screens to Accelerate Discovery of P2X Inhibitors from Animal Venoms” (Journal of Natural Products, 2019)", "format_in_all_cases": "cell-based", "key": {"hP2X4 [1]": {"molecular_target": "T1, hP2X4 (Homo sapiens, UniProt Q99571)", "T1 construct": "expressed in transfected cells", "T1 sequence (Q99571 1-388)": "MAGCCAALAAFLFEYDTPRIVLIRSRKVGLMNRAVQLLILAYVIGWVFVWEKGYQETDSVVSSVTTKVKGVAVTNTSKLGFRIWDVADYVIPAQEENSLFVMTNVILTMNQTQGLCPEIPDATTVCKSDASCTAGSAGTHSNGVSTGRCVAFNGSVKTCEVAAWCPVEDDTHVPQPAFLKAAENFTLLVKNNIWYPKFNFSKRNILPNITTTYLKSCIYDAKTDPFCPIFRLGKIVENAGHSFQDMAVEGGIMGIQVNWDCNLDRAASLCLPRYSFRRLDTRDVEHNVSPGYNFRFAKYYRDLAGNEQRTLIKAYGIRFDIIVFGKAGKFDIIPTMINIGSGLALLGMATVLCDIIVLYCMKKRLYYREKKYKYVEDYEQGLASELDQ", "test": "Fura-2 AM [Ca2+]i assay on 1321N1-hP2X4 cells", "conditions": "used for fitting; Figure S1 A,B: 1321N1-hP2X4 and HEK293-hP2X4; read-out: ATP EC50", "experimental": "One day prior to measurements, 1321N1-hP2X4 cells were plated onto poly-D-lysine-coated 96-well plates at 2 × 10^4 cells/well. After 24 h, the cells were loaded for 1 h at 37 °C with 2 μM Fura-2 AM in Hank’s Balanced Salt Solution (HBSS, Gibco). The Fura-2 loading buffer dye was removed; then the cells were incubated in 80 μL of Etotal buffer, containing (in mM) 145 NaCl, 5 KCl, 1 MgCl2, 2 CaCl2, 13 D-glucose, 10 HEPES; pH 7.33. […] The injection volume was 10 μL with 150 μL pipette height and rate of 4 (∼62 μL/s). The run time was 300 s with 3.5 s intervals and 3 reads/well. The change in [Ca^2+]i concentration was calculated as the ratio of Fura-2 intensities at 520 emission from excitation at 340 and 380 nm (F ratio)."}, "hP2X7": {"molecular_target": "T2, hP2X7 (Homo sapiens, UniProt Q99572)", "T2 construct": "expressed in transfected cells", "T2 sequence (Q99572 1-595)": "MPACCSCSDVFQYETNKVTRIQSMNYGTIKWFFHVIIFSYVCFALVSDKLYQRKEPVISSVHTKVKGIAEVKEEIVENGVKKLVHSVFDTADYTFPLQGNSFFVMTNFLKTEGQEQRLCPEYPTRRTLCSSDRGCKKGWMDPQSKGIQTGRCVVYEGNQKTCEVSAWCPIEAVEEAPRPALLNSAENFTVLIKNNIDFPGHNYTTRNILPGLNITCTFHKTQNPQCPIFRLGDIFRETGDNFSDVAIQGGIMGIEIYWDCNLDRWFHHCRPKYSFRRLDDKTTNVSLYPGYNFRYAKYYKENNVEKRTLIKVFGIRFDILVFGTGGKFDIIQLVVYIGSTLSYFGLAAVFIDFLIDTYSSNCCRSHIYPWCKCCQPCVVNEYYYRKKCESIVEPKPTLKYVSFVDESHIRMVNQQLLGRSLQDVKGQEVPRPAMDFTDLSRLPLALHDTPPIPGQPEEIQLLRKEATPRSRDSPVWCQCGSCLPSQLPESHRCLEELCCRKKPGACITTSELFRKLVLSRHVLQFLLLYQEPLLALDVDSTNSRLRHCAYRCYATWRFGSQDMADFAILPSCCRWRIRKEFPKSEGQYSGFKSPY", "test": "YOPRO-1 dye uptake assay on HEK293-hP2X7 cells", "conditions": "used for fitting; Figure S1C: HEK293-hP2X7; read-out: ATP EC50", "protocol": "(§1) This method was adapted and further optimized from Patrice et al.[50] One day prior to measurements, HEK293-hP2X4 and HEK293-hP2X7 cells were plated on poly-D-lysine-coated 96-well plates at 2 × 10^4 cells/well. After 24 h, the culture media was aspirated, and 80 μL of YOPRO-1 assay buffer (145 mM NaCl, 5 mM KCl, 0.1 mM CaCl2, 13 mM D-glucose, 10 mM HEPES; pH 7.35) with 2 μM YOPRO-1 was applied. […] The injection volume was 10 μL with a 150 μL pipet height and rate of 4 (∼62 μL/s). The run time was 300 s with a 3.9 s interval, 6 reads/well, and 77 reads in total. Measurement parameters were as follows: bottom reading, excitation wavelength (490 nm), emission wavelength (520 nm)."}, "hP2X4 [2]": {"molecular_target": "T1, hP2X4", "test": "YOPRO-1 dye uptake assay on HEK293-hP2X4 cells", "protocol": "as §1"}}}
{"compound": "Nc1ncnc2c1ncn2[C@@H]1O[C@H](COP(=O)(O)OP(=O)(O)OP(=O)(O)O)[C@@H](O)[C@H]1O", "note": "[ATP]", "values": [{"measurement": "EC50", "setting": "hP2X4 [1]", "result": 1.6, "unit": "µM"}, {"measurement": "EC50", "setting": "hP2X7", "result": 300, "unit": "µM"}]}
{"compound": "CC(C)c1cc(Br)c(NC(=O)Nc2cccnc2)c(Br)c1", "note": "[BX430]", "values": [{"measurement": "inhibition at 10 µM", "setting": "hP2X4 [2]; 10 μM, hP2X4, cell line not stated", "result": 75, "unit": "%"}, {"measurement": "Normalised Mean", "setting": "hP2X4 [2]; AUC signal normalised to positive control (10 µM ATP) = 1.0, HEK293-hP2X4", "result": 1.05}]}
